Measured values taken from patent US11739102B2, “Fused pyrimidine compounds as KRAS inhibitors” (Incyte Corporation, priority 2020, dated 2023).

Experiments:
KRAS G12C = KRAS G12C (Homo sapiens, UniProt P01116, G12C); experiment: GDP-GTP exchange assay (bodipy-GDP/GppNHp, SOS1); assay type: biochemical; conditions: bodipy-loaded KRAS G12C 2.5 nM, SOS1 150 nM, 2 hours pre-incubation with inhibitor; read-out: G12C_exchange IC50
Procedure: The inhibitor potency of the exemplified compounds was determined in a fluorescence based guanine nucleotide exchange assay, which measures the exchange of bodipy-GDP (fluorescently labeled GDP) for GppNHp (Non-hydrolyzable GTP analog) to generate the active state of KRAS in the presence of SOS1 (guanine nucleotide exchange factor). Inhibitors were serially diluted in DMSO and a volume of 0.1 μL was transferred to the wells of a black low volume 384-well plate. 5 μL/well volume of bodipy-loaded KRAS G12C diluted to 5 nM in assay buffer (25 mM Hepes pH 7.5, 50 mM NaCl, 10 mM MgCl2 and 0.01% Brij-35) was added to the plate and pre-incubated with inhibitor for 2 hours at ambient temperature. Appropriate controls (enzyme with no inhibitor or with a G12C inhibitor (AMG-510)) were included on the plate. The exchange was initiated by the addition of a 5 μL/well volume containing 1 mM GppNHp and 300 nM SOS1 in assay buffer. The 10 μL/well reaction concentration of the bodipy-loaded KRAS G12C, GppNHp, and SOS1 were 2.5 nM, 500 uM, and 150 nM, respectively. The reaction plates were incubated at ambient temperature for 2 hours, a time estimated for complete GDP-GTP exchange in the absence of inhibitor. For the KRAS G12D and G12V mutants, similar guanine nucleotide exchange assays were used with 2.5 nM as final concentration for the bodipy loaded KRAS proteins and with 4 hours and 3 hours incubation after adding GppNHp-SOS1 mixture for G12D and G12V respectively. A cyclic peptide described to selectively bind G12D mutant (Sakamoto et al., BBRC 484.3 (2017), 605-611) or internal compounds with confirmed binding were used as positive controls in the assay plates. Fluorescence intensities were measured on a PheraStar plate reader instrument (BMG Labtech) with excitation at 485 nm and emission at 520 nm.
Either GraphPad prism or XLfit was used to analyze the data. The IC50 values were derived by fitting the data to a four parameter logistic equation producing a sigmoidal dose-response curve with a variable Hill coefficient. Prism equation: Y=Bottom+(Top−Bottom)/(1+10^((Log IC50−X)*Hill slope)); XLfit equation: Y=(A+((B−A)/(1+((X/C)^D)))) where X is the logarithm of inhibitor concentration and Y is the response.

[1] = tested on: MIA PaCa-2 (KRAS G12C) cells; experiment: Cellular pERK HTRF assay (KRAS_G12C pERK assay); assay type: cell-based; conditions: Homo sapiens, cells incubated with compound 4 hours, read-out: G12C_pERK IC50
Procedure: MIA PaCa-2 (KRAS G12C; ATCC® CRL-1420), A427 (KRAS G12D; ATCC® HTB53), HPAF-II (KRAS G12D; ATCC® CRL-1997) and NCI-H838 (KRAS WT; ATCC® CRL-5844) cells are purchased from ATCC and maintained in RPMI 1640 media supplemented with 10% FBS (Gibco/Life Technologies). The cells are plated at 5000 cells per well (8 uL) into Greiner 384-well low volume, flat-bottom, tissue culture treated white plates and incubated overnight at 37° C., 5% CO2. The next morning, test compound stock solutions are diluted in media at 3× the final concentration, and 4 uL are added to the cells. The plate is mixed by gentle rotation for 30 seconds (250 rpm) at room temperature. The cells are incubated with the KRAS G12C and G12D compounds for 4 hours or 2 hours respectively at 37° C., 5% CO2.
4 uL of 4× lysis buffer with blocking reagent (1:25) (Cisbio) are added to each well and plates are rotated gently (300 rpm) for 30 minutes at room temperature. 4 uL per well of Cisbio anti Phospho-ERK 1/2 d2 is mixed with anti Phospho-ERK 1/2 Cryptate (1:1) are added to each well, mixed by rotation and incubated overnight in the dark at room temperature. Plates are read on the Pherastar plate reader at 665 nm and 620 nm wavelengths. IC50 determination is performed by fitting the curve of inhibitor percent inhibition versus the log of the inhibitor concentration using the GraphPad Prism 7 software.

Chain of KRAS G12C (P01116 1-188 isoform P01116-2 G12C): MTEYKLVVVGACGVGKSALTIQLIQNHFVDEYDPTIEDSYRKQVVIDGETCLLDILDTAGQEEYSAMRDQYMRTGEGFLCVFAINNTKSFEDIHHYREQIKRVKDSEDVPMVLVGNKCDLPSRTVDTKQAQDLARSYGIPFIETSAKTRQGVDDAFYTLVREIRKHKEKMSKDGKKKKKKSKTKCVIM

| SMILES | IC50 (KRAS G12C) | IC50 [1] |
| --- | --- | --- |
| C=Cc1ncc2n1CCN(c1nc(OCC3CCCCN3C)nc3c1CCN(c1cccc4cccc(Cl)c14)C3)C2 (centres unmarked) [Example 7, 7-(8-Chloronaphthalen-1-yl)-2-((1-methylpiperidin-2-yl)methoxy)-4-(3-vinyl-5,6-dihydroimidazo[1,5-a]pyrazin-7(8H)-yl)-5,6,7,8-tetrahydropyrido[3,4-d]pyrimidine] | 100 to 1000 nM |  |
| C=Cc1ncc2n1CCN(c1nc(OC[C@@H]3CCCN3C)nc3c1CCN(c1cccc4cccc(Cl)c14)C3)C2 [Example 4, (S)-7-(8-Chloronaphthalen-1-yl)-2-((1-methylpyrrolidin-2-yl)methoxy)-4-(3-vinyl-5,6-dihydroimidazo[1,5-a]pyrazin-7(8H)-yl)-5,6,7,8-tetrahydropyrido[3,4-d]pyrimidine] | 100 to 1000 nM | 1000 to 5000 nM |
| C=Cc1ncc2n1CCN(c1nc(OCCCN3CCOCC3)nc3c1CCN(c1cccc4ccccc14)C3)C2 [Example 2, 4-(3-((7-(Naphthalen-1-yl)-4-(3-vinyl-5,6-dihydroimidazo[1,5-a]pyrazin-7(8H)-yl)-5,6,7,8-tetrahydropyrido[3,4-d]pyrimidin-2-yl)oxy)propyl)morpholine] | ≤ 100 nM | 1000 to 5000 nM |
| C=Cc1ncc2n1CCN(c1nc(OCC3CCCN(C)C3)nc3c1CCN(c1cccc4cccc(Cl)c14)C3)C2 (centres unmarked) [Example 6, 7-(8-Chloronaphthalen-1-yl)-2-((1-methylpiperidin-3-yl)methoxy)-4-(3-vinyl-5,6-dihydroimidazo[1,5-a]pyrazin-7(8H)-yl)-5,6,7,8-tetrahydropyrido[3,4-d]pyrimidine] | 100 to 1000 nM | 1000 to 5000 nM |
| C=Cc1ncc2n1CCN(c1nc(OCCCN3CCOCC3)nc3c1CCN(c1cccc4cccc(Cl)c14)C3)C2 [Example 1, 4-(3-((7-(8-Chloronaphthalen-1-yl)-4-(3-vinyl-5,6-dihydroimidazo[1,5-a]pyrazin-7(8H)-yl)-5,6,7,8-tetrahydropyrido[3,4-d]pyrimidin-2-yl)oxy)propyl)morpholine] | 100 to 1000 nM | 1000 to 5000 nM |
| C=Cc1ncc2n1CCN(c1nc(OC[C@@H]3CCCN3C)nc3c1CCN(c1cccc4ccccc14)C3)C2 [Example 3, (S)-2-((1-Methylpyrrolidin-2-yl)methoxy)-7-(naphthalen-1-yl)-4-(3-vinyl-5,6-dihydroimidazo[1,5-a]pyrazin-7(8H)-yl)-5,6,7,8-tetrahydropyrido[3,4-d]pyrimidine] | ≤ 100 nM | 1000 to 5000 nM |
| C=Cc1ncc2n1CCN(c1nc(OCCCN3CCCCC3)nc3c1CCN(c1cccc4cccc(Cl)c14)C3)C2 [Example 5, 7-(8-Chloronaphthalen-1-yl)-2-(3-(piperidin-1-yl)propoxy)-4-(3-vinyl-5,6-dihydroimidazo[1,5-a]pyrazin-7(8H)-yl)-5,6,7,8-tetrahydropyrido[3,4-d]pyrimidine] | 100 to 1000 nM | 1000 to 5000 nM |

Second part, the molecule after the results:

| IC50 (KRAS G12C) | IC50 [1] | SMILES |
| --- | --- | --- |
| 1000 to 5000 nM |  | C=Cc1ncc2n1CCN(c1nc(OCCCN3CCOCC3)nc3c1CCN(c1cc(O)cc4ccccc14)C3)C2 [Example 13, 4-(2-(3-Morpholinopropoxy)-4-(3-vinyl-5,6-dihydroimidazo[1,5-a]pyrazin-7(8H)-yl)-5,8-dihydropyrido[3,4-d]pyrimidin-7(6H)-yl)naphthalen-2-ol] |
| 100 to 1000 nM |  | C=Cc1ncc2n1CCN(c1nc(OCCC3CCCN3C)nc3c1CCN(c1cccc4cccc(Cl)c14)C3)C2 (centres unmarked) [Example 8, 7-(8-Chloronaphthalen-1-yl)-2-(2-(1-methylpyrrolidin-2-yl)ethoxy)-4-(3-vinyl-5,6-dihydroimidazo[1,5-a]pyrazin-7(8H)-yl)-5,6,7,8-tetrahydropyrido[3,4-d]pyrimidine] |
| 100 to 1000 nM |  | C=Cc1ncc2n1CCN(c1nc(OC[C@@H]3CCCN3Cc3ccccc3)nc3c1CCN(c1cccc4cccc(Cl)c14)C3)C2 [Example 10, (S)-2-((1-Benzylpyrrolidin-2-yl)methoxy)-7-(8-chloronaphthalen-1-yl)-4-(3-vinyl-5,6-dihydroimidazo[1,5-a]pyrazin-7(8H)-yl)-5,6,7,8-tetrahydropyrido[3,4-d]pyrimidine] |
| 100 to 1000 nM | 1000 to 5000 nM | C=Cc1ncc2n1CCN(c1nc(OC[C@H]3CCCN3C)nc3c1CCN(c1cc(O)cc4ccccc14)C3)C2 [Example 11, (R)-4-(2-((1-Methylpyrrolidin-2-yl)methoxy)-4-(3-vinyl-5,6-dihydroimidazo[1,5-a]pyrazin-7(8H)-yl)-5,8-dihydropyrido[3,4-d]pyrimidin-7(6H)-yl)naphthalen-2-ol] |
| 1000 to 5000 nM |  | C=Cc1cnc2n1CCN(c1nc(OC[C@@H]3CCCN3C)nc3c1CCN(c1cccc4cccc(Cl)c14)C3)C2 [Example 14, (S)-7-(8-Chloronaphthalen-1-yl)-2-((1-methylpyrrolidin-2-yl)methoxy)-4-(3-vinyl-5,6-dihydroimidazo[1,2-a]pyrazin-7(8H)-yl)-5,6,7,8-tetrahydropyrido[3,4-d]pyrimidine] |
| 1000 to 5000 nM |  | C=Cc1ncc2n1CCN(c1nc(OCC3(C#N)CCCC3)nc3c1CCN(c1cccc4cccc(Cl)c14)C3)C2 [Example 12, 1-(((7-(8-Chloronaphthalen-1-yl)-4-(3-vinyl-5,6-dihydroimidazo[1,5-a]pyrazin-7(8H)-yl)-5,6,7,8-tetrahydropyrido[3,4-d]pyrimidin-2-yl)oxy)methyl)cyclopentane-1-carbonitrile] |
| 100 to 1000 nM | 1000 to 5000 nM | C=Cc1ncc2n1CCN(c1nc(OC[C@@H]3CCCN3C)nc3c1CCN(c1cc(O)cc4ccccc14)C3)C2 [Example 9, (S)-4-(2-((1-Methylpyrrolidin-2-yl)methoxy)-4-(3-vinyl-5,6-dihydroimidazo[1,5-a]pyrazin-7(8H)-yl)-5,8-dihydropyrido[3,4-d]pyrimidin-7(6H)-yl)naphthalen-2-ol] |
| 1000 to 5000 nM |  | C=Cc1cnc2n1CCN(c1nc(OCCCN3CCOCC3)nc3c1CCN(c1cccc4cccc(Cl)c14)C3)C2 [Example 15, 4-(3-((7-(8-Chloronaphthalen-1-yl)-4-(3-vinyl-5,6-dihydroimidazo[1,2-a]pyrazin-7(8H)-yl)-5,6,7,8-tetrahydropyrido[3,4-d]pyrimidin-2-yl)oxy)propyl)morpholine] |
